{"source": "PubChem BioAssay AID1584", "about": "(NINDS Approved Drug Screening Program, 2009)", "note": "pEC50: −log10 of the molar value. Inconclusive results are not listed.", "data": [{"molecular_target": "Huntingtin (Homo sapiens) (UniProt P42858)", "sequence (P42858 whole entry, looked up)": "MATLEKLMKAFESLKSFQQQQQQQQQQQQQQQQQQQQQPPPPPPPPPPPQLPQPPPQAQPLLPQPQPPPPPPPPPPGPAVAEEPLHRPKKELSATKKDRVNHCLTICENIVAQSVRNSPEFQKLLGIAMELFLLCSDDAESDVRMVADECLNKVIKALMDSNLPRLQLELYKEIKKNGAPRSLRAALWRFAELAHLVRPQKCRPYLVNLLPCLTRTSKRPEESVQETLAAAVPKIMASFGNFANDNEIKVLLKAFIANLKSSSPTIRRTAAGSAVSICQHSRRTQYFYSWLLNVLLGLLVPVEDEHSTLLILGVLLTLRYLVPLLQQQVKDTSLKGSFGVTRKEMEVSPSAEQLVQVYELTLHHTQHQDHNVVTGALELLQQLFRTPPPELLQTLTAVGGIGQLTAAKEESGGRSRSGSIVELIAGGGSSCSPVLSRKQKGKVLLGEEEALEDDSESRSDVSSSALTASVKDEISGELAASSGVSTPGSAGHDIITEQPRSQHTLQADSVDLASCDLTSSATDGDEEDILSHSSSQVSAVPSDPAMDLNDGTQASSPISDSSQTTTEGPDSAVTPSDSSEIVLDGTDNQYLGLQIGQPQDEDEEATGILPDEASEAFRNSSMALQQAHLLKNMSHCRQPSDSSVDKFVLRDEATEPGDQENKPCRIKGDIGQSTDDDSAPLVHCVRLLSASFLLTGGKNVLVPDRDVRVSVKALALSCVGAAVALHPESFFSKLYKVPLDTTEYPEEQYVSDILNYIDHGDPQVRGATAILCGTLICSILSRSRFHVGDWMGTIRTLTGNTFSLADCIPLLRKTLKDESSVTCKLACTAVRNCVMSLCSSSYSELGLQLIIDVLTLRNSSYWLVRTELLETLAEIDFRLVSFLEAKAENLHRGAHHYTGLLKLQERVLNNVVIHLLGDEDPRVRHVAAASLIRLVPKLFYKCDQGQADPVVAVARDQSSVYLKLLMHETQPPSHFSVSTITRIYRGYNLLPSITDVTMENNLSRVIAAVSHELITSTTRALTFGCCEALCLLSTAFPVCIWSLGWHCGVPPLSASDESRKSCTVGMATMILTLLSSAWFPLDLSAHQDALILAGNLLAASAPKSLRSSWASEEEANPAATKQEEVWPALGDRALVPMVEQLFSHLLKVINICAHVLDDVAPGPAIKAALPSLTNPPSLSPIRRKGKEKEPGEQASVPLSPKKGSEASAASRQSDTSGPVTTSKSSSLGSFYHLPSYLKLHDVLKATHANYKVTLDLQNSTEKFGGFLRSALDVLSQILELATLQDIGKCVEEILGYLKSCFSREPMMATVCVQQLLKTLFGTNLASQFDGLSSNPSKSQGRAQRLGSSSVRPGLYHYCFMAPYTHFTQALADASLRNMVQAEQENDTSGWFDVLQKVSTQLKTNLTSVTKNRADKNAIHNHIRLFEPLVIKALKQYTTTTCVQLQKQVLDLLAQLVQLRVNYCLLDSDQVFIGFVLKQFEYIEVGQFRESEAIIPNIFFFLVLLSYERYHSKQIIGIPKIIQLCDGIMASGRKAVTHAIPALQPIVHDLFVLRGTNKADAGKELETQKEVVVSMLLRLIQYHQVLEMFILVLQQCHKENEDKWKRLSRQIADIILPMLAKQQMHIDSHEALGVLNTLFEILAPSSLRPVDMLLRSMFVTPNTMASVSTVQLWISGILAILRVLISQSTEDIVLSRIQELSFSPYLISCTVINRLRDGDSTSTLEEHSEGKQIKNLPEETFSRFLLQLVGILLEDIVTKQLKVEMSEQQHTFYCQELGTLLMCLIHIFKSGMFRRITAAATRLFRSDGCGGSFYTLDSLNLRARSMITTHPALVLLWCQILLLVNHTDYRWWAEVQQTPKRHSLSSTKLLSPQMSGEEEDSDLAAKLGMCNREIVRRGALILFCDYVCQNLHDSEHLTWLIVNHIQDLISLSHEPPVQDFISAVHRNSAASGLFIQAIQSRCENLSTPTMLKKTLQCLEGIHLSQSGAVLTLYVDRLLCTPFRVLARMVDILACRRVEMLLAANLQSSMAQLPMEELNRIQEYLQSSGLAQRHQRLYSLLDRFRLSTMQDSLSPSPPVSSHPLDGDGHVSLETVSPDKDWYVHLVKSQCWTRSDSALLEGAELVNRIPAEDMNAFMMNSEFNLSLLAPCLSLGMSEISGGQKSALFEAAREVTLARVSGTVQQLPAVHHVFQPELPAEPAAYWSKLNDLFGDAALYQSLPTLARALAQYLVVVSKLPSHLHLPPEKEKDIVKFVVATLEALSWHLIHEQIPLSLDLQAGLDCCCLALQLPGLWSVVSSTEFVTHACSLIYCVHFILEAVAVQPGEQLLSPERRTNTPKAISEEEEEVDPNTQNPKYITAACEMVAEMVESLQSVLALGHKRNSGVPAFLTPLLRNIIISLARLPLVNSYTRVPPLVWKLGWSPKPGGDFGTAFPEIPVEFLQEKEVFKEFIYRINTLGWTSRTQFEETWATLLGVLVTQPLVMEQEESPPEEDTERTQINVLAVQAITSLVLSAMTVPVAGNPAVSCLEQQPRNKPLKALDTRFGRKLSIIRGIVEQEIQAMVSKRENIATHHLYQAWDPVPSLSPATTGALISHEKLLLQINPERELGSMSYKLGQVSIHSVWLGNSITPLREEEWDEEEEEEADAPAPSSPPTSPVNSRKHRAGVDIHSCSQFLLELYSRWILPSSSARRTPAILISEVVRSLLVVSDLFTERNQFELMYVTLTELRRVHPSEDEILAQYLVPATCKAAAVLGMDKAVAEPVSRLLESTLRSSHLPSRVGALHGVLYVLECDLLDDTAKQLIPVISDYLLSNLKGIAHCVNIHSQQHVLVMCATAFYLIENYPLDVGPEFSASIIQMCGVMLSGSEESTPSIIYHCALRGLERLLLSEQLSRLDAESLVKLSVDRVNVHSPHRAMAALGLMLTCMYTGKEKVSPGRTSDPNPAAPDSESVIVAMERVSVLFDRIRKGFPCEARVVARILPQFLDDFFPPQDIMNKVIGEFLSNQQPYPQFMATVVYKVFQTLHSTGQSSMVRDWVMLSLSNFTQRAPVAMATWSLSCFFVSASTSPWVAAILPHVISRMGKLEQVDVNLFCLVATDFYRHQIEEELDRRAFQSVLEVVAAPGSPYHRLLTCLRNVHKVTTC", "assay": "inhibitors of mutant Htt aggregation in vitro, dose response, QA1 (AID 1584)", "conditions": "in vitro mutant huntingtin aggregation assay", "values": [{"smiles": "Cc1cc(/C=C/c2ccc3cc(N(C)C)ccc3[n+]2C)c(C)n1-c1ccccc1", "pEC50": 4.66}, {"smiles": "O=C1C=CC(=O)c2c(O)cccc21", "pEC50": 5.57}, {"smiles": "O=c1c(O)c(-c2ccc(O)cc2O)oc2cc(O)cc(O)c12", "pEC50": 4.77}, {"smiles": "C[n+]1cc2c3c(ccc2c2ccc4cc5c(cc4c21)OCO5)OCO3", "pEC50": 5.24}, {"smiles": "O=C1c2c(O)cccc2Cc2cccc(O)c21", "pEC50": 4.98}, {"smiles": "C[C@@]1(C(=O)O)CC[C@]2(C)CC[C@]3(C)C4=CC=C5C=C(O)C(=O)C=C5[C@]4(C)CC[C@@]3(C)[C@@H]2C1", "pEC50": 5.45}, {"smiles": "C=Cc1c(C)c2cc3[nH]c(cc4nc(cc5nc(cc1[nH]2)C(C)=C5CCC(=O)O)C(CCC(=O)O)=C4C)c(C)c3C=C", "pEC50": 4.71}, {"smiles": "C=C1c2c(Cl)ccc(O)c2C(O)=C2C(=O)[C@]3(O)C(O)=C(C(N)=O)C(=O)[C@@H](N(C)C)[C@@H]3[C@@H](O)[C@H]12", "pEC50": 4.83}, {"smiles": "Cc1cc2c(C(C)C)c(O)c(O)c(C=O)c2c(O)c1-c1c(C)cc2c(C(C)C)c(O)c(O)c(C=O)c2c1O", "pEC50": 6.19}, {"smiles": "CC(C)=CCCC1(C)C=Cc2c(O)c3c(c(CC=C(C)C)c2O1)OC12C(=CC4CC1C(C)(C)OC2(C/C=C(/C)C(=O)O)C4=O)C3=O", "note": "(stereo not given)", "pEC50": 6.06}]}]}
